{
  "source": "patent US8916607B2",
  "about": "“Use of piperphentonamine or salts thereof in manufacture of medicaments for treating brain diseases” (Guangzhou Municipal Zhongwei Biotechnology Limited Company, priority 2009, dated 2014)",
  "key": {"[1]": {"tested_on": "cerebral ischemia/reperfusion injury in mice", "test": "focal cerebral ischemia reperfusion injury model in mice (suture method), TTC infarction area", "type": "in vivo", "protocol": "Focal cerebral ischemia reperfusion injury model is made in mice by using suture method, being ischemia for 2 h, then reperfusing for 24 h, and it proves that piperphentonamine hydrochloride has protective effect on ischemia-reperfusion cerebral injury.\nMouse is anesthetized by injecting 10% chloral hydrate (350 mg/kg) in intraperitoneal, being intravenously administered 1 mg/kg, 5 mg/kg piperphentonamine hydrochloride or 20 u/kg coenzyme A, (COA), making the cerebral artery ischemia like as the method of example 6. Pulling out nylon thread from the internal carotid artery after the operation in 2 hours, until the end of the nylon thread is at bifurcation of the common carotid artery. Reperfusing for 24 hours. Except for not inserting a thread, the rest of steps for the false operation group are same as the above-mentioned. After reperfusion for 24 h, decapitating and taking the brain of survived mice, rapidly putting in −20° C. freezer for 5 min, then removing, quickly cutting coronal slices of 2.0 mm thickness from forward to back on the operating table, putting the slices in phosphate buffer solution with 1% TTC immediately, incubating for 30 min in avoiding light at room temperature. Flip brain slices to make them touch staining solution uniformly every 10 minute, and scanning and observing the dyeing results.\nThe local cerebral ischemia model of mice was established by using thread bolt method, to validate that piperphentonamine acetate has protective effect on experimental cerebral ischemia animal."}, "[2]": {"tested_on": "infective brain edema of rats (pertussis bacteria liquid)", "test": "infective cerebral edema by pertussis bacteria liquid: brain water, sodium and potassium ion content", "type": "in vivo, SD rats", "set-up": "Na^+ / K^+: unit not given here", "details": "pretreatment 0.5 mg/kg ip daily for 2 days; 4 h after bacterial liquid"}, "[3]": {"tested_on": "infective brain edema of rats (pertussis bacteria liquid)", "test": "infective cerebral edema: IL-1β, TNF-α (ELISA) and NO (Griess) in cerebral tissue", "type": "in vivo, SD rats", "details": "pretreatment 0.5 mg/kg ip daily for 2 days; rat brain tissue, 4 h", "protocol": "Determine the content of IL-1β, TNF-α and NO by using ELISA and Griess method.\nModel preparation was same as that of example 4. Piperphentonamine acetate group was intraperitoneally injected with 0.5 mg/kg daily for 2 days 48 h before the injection of pertussis bacterial liquid. Rats in each group were decollated after being injected with bacterial liquid or saline 4 h. ELISA method and Griess method were used to measure the content of IL-1β, TNF-α and NO in brain homogenate of infectious brain edema model of rats."}, "[4]": {"tested_on": "cerebral edema of mice caused by closed cerebral trauma", "test": "closed cerebral trauma model of mice, brain water content", "type": "in vivo, Kunming mice", "details": "method as example 2", "protocol": "There were 10 mice in each group.\nThe closed cerebral trauma model of mice being established after fasting for 16 hours, administering intravenously to each group, striping and taking the brain of mouse after 24 hours, weighing the wet weight, and drying at 70° C. for 24 hours, then weighing the dry weight, and calculating brainwater content; the brain water content which is higher than normal values indicates the cerebral edema.\nThe grouping method, administer method and model preparation were referred to example 2."}, "[5]": {"tested_on": "cultured cerebral neurons", "test": "NMDA induces neuron injury in primary cultured neurons", "type": "cell-based, rat", "details": "drug 50 mmol/L; NMDA 50 mmol/L, 12 h"}},
  "note": "Marks after values point to notes of the source that are not given here.",
  "data": [
    {"molecule": "Nc1ncnc2c1ncn2[C@@H]1O[C@H](COP(=O)(O)OP(=O)(O)OP(=O)(O)O)[C@@H](O)[C@H]1O", "note": "[ATP, reference compound]", "values": [
      {"measurement": "The percentage of infarction area occupied the entire coronal plane (%)", "setting": "[1]; 5 mg/kg, method as example 7 (example 16)", "value": "20.53 ± 4.82", "unit": "%"}
    ]},
    {"molecule": "CC(C)(COP(=O)(O)OP(=O)(O)OC[C@H]1O[C@@H](n2cnc3c(N)ncnc32)[C@H](O)[C@@H]1OP(=O)(O)O)[C@@H](O)C(=O)NCCC(=O)NCCS", "note": "[CoA, coenzyme A, reference compound]", "values": [
      {"measurement": "The percentage of infarction area occupied the entire coronal plane (%)", "setting": "[1]; 20 U/kg iv, ischemia 2 h, reperfusion 24 h", "value": "20.53 ± 4.82", "unit": "%"}
    ]},
    {"molecule": "CC1=NN(c2ccccc2)C(=O)C1", "note": "[Edaravone Injection, edaravone, reference compound]", "values": [
      {"measurement": "The percentage of infarction area occupied the entire coronal plane (%)", "setting": "[1]; 3 mg/kg, method as example 7 (example 16)", "value": "18.43 ± 3.56", "unit": "%"}
    ]},
    {"molecule": "CC(=O)O.CN(CCC(=O)/C=C/c1ccc(O)cc1)CCc1ccc2c(c1)OCO2", "note": "[piperphentonamine acetate]", "values": [
      {"measurement": "K^+", "setting": "[2]", "value": "396.6 ± 39.9"},
      {"measurement": "Na^+", "setting": "[2]", "value": "164.7 ± 23.7"},
      {"measurement": "brain water content (%)", "setting": "[2]", "value": "63.44 ± 0.4^3) %"},
      {"measurement": "IL-1β", "setting": "[3]", "value": "197.1 ± 27.1^2)3) pg/g"},
      {"measurement": "NO", "setting": "[3]", "value": "53.3 ± 3.71^2)3) nmol/g"},
      {"measurement": "TNF-α", "setting": "[3]", "value": "309.3 ± 83.5^2)3) pg/g"},
      {"measurement": "The percentage of infarction area occupied the entire coronal plane (%)", "setting": "[1]; 4 mg/kg, thread bolt method (example 15)", "value": "18.12 ± 2.64^ΔΔ %"}
    ]},
    {"molecule": "CN(CCC(=O)/C=C/c1ccc(O)cc1)CCc1ccc2c(c1)OCO2.O=C(O)CC(O)(CC(=O)O)C(=O)O", "note": "[piperphentonamine citrate]", "values": [
      {"measurement": "brain water content (%)", "setting": "[4]; 2 mg/kg", "value": "80.32 ± 7.72", "unit": "%"},
      {"measurement": "brain water content (%)", "setting": "[4]; 4 mg/kg", "value": "78.84 ± 9.48", "unit": "%"},
      {"measurement": "brain water content (%)", "setting": "[4]; 8 mg/kg", "value": "75.28 ± 6.48", "unit": "%"},
      {"measurement": "The percentage of infarction area occupied the entire coronal plane (%)", "setting": "[1]; treated group (C), dose not given, model as example 7", "value": "16.88 ± 2.48**^ΔΔ %"}
    ]},
    {"molecule": "Ganglioside [GM, reference compound]", "values": [
      {"measurement": "morphological change of culture neuron (protection function)", "setting": "[5]", "value": "equal to the one of piperphentonamine hydrochloride 10 mmol/L"},
      {"measurement": "mortality", "setting": "[5]", "value": 40, "unit": "%"}
    ]}
  ]
}
